Assay results taken from patent US4397860A, “Benzodioxanyl imidazoline compounds, compositions and use” (Reckitt & Colman Products Limited, priority 1981, dated 1983).
Counter-ions that a name gives are not always drawn. Like-named read-outs stand apart in the source and are kept apart here.

Key:
[1] = molecular target: T1, pre-synaptic α2-adrenoreceptor (Mus musculus, UniProt Q01338); test: Pre-synaptic α2-adrenoreceptor agonist activity, mouse vas deferens (inhibition of twitch responses); design: key: I.A.: inactive; conditions: potency relative to clonidine = 1
T1 construct: from tissue; host or cells: mouse vas deferens
T1 sequence (Q01338 1-465): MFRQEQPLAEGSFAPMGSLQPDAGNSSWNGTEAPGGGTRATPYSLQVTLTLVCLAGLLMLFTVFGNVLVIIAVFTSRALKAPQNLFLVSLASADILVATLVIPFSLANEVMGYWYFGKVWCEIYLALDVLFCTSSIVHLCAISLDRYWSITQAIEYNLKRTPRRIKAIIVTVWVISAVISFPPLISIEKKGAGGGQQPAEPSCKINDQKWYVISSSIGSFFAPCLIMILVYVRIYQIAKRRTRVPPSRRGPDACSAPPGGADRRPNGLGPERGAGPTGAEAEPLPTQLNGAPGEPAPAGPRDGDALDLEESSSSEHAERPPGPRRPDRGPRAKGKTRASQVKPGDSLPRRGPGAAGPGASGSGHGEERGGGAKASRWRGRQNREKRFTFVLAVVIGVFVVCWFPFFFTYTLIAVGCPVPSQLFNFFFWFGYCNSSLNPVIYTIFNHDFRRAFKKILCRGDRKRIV
Protocol: The pharmacological activity of the compound of Example 1 (in formula I R^1 =methyl) has been compared with the activities of the isomeric compounds in which the methyl group is situated at differing positions in formula A. The procedures involved the measurement of agonist or antagonist activity at pre- and post-synaptic α-adrenoreceptors.
In the procedures outlined below agonist potency of the compounds was determined with respect to standard agents whereas antagonist potency was related to that of the compound of formula A. Pre- and post-synaptic studies were carried out in the mouse vas deferens and rat anococcygeus muscle respectively.
Pre-synaptic studies (α2)
The mouse vas deferens was stimulated at low frequency (0.1 Hz) and the "twitch" responses recorded. Pre-synaptic α2 -adrenoreceptor agonist activity was determined by assessing the ability of compounds to inhibit these contractions. When inhibition was seen the potency of the individual compounds was related to that of the standard α2 -adrenoreceptor agonist clonidine.

[2] = molecular target: T2, postsynaptic α1-adrenoreceptor (Rattus norvegicus, UniProt P43140); test: Post-synaptic α1-adrenoreceptor agonist activity, rat anococcygeus muscle (contractions); design: key: I.A.: inactive; conditions: potency relative to phenylephrine = 1
T2 construct: the rat anococcygeus muscle is used to establish postsynaptic α1 -adrenoreceptor activity; from tissue; host or cells: rat anococcygeus muscle
T2 sequence (P43140 1-466): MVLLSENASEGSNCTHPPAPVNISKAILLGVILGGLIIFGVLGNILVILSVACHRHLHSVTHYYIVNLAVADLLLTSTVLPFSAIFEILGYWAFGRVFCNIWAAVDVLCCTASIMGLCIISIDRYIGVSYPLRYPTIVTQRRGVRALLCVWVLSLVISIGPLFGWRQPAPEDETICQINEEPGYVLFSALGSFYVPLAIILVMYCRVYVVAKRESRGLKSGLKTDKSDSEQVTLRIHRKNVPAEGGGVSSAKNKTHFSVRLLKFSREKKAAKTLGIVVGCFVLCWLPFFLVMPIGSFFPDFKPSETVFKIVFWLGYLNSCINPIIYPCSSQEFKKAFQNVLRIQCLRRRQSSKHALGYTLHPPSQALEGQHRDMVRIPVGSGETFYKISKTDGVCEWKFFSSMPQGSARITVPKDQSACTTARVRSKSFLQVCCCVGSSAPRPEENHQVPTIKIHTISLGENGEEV

[3] = molecular target: T2, postsynaptic α1-adrenoreceptor; test: Post-synaptic α1-adrenoreceptor antagonist activity, rat anococcygeus muscle (noradrenaline-induced contractions)
[4] = molecular target: T2, postsynaptic α1-adrenoreceptor; test: Postsynaptic α1-adrenoreceptor antagonism vs noradrenaline contractions, isolated rat anococcygeus muscle; conditions: mean of minimum 5 experiments, read-out: Postsynaptic antagonism pA2 vs Noradrenaline (anococcygeus) (converted)
[5] = test system: pre-synaptic α2-adrenoreceptor; test: Pre-synaptic α2-adrenoreceptor antagonist activity, mouse vas deferens (reversal of clonidine inhibition); conditions: for α2/α1 selectivity: selectivity relative to the compound of formula A, mouse vas deferens / rat anococcygeus
Protocol: In the antagonist studies the same experimental conditions were used except that the twitch response was suppressed by including clonidine (30 ng/ml) in the physiological solution.

[6] = test system: presynaptic α2-adrenoreceptors; conditions: from G.B. 2,068,376A / U.S. Ser. No. 230,195; cited from earlier work
[7] = rat anococcygeus muscle vs noradrenaline, dose-ratio of 2, […]

| Compound | α2 potency: Agonism [1] | α1 potency: Agonism [2] | α1 potency: Antagonism [3, 7] | Kb [4] [µM] | selectivity relative to the compound of formula A (in words) ([5]; Table 3) | α2/α1 selectivity [5] | α1 potency: Antagonism [3] | selectivity in blocking presynaptic α2-adrenoreceptors (in words) [6] | α1 potency: Antagonism (result in words) ([3]; rat anococcygeus muscle vs noradrenaline, 20ng/ml) |
| --- | --- | --- | --- | --- | --- | --- | --- | --- | --- |
| Cc1cccc2c1OC(C1=NCCN1)CO2 (stereo not drawn) [Example 8-methyl] | 0.01 | 2.1 | – | – | – | – | – | – | – |
| CC1Oc2ccccc2OC1C1=NCCN1 (stereo not drawn) [Example 3-methyl] | I.A. | I.A. | < 0.023 | – | – | – | – | – | – |
| CC1(C2=NCCN2)COc2ccccc2O1 (stereo not drawn) [Example 1, 2-[2-(2-Methyl-1,4-benzodioxanyl)]-2-imidazoline hydrochloride] | I.A. | I.A. | 0.28 | 2.51 | rather more than twice as selective as the compound of formula A | 2.4 | – | – | – |
| CN1CCN=C1C1COc2ccccc2O1 (stereo not drawn) [3^1 -methyl] | I.A. | I.A. | – | – | – | 0.003 | 1.0 | – | – |
| Cc1ccc2c(c1)OCC(C1=NCCN1)O2 (stereo not drawn) [Example 6-methyl] | I.A. | I.A. | < 0.11 | – | – | 0.7 | – | – | – |
| c1ccc2c(c1)OCC(C1=NCCN1)O2 (stereo not drawn) [formula A, 2-[2-(1,4-benzodioxanyl)]-2-imidazoline] | – | – | – | – | – | – | – | high degree of selectivity in blocking presynaptic α2 -adrenoreceptors | – |
| Cc1cccc2c1OCC(C1=NCCN1)O2 (stereo not drawn) [Example 5-methyl] | 0.1 | 1.0 | – | – | – | – | – | – | Potentiation |
| Cc1ccc2c(c1)OC(C1=NCCN1)CO2 (stereo not drawn) [Example 7-methyl] | I.A. | 0.004 | 0.125 | – | – | 0.64 | – | – | – |
